# Assay: in vitro
# Details: human, liver microsomes, pH 7.4
row,SMILES,half-life at 0.5 μM
1,"NC(=O)[C@@H](c1ccccc1)[C@@H](CCC(F)(F)F)C(=O)N[C@@H]1C(=O)Nc2ccccc2-c2ccccc21 [Example 6, (2R,3R)-N-((7S)-6-Oxo-6,7-dihydro-5H-dibenzo[b,d]azepin-7-yl)-3-phenyl-2-(3,3,3-trifluoropropyl)succinamide]",≥ 40 min
2,"CCC[C@@H](C(=O)N[C@@H]1C(=O)Nc2ccccc2-c2ccccc21)[C@H](CCC(F)(F)F)C(N)=O [Example 4, (2R,3S)-N-((7S)-6-Oxo-6,7-dihydro-5H-dibenzo[b,d]azepin-7-yl)-2-propyl-3-(3,3,3-trifluoropropyl)succinamide]",≥ 40 min
3,"NC(=O)[C@@H](CC1CC1)[C@@H](CCC(F)(F)F)C(=O)N[C@@H]1C(=O)Nc2ccccc2-c2ccccc21 [Example 3, (2R,3S)-3-(Cyclopropylmethyl)-N-((7S)-6-oxo-6,7-dihydro-5H-dibenzo[b,d]azepin-7-yl)-2-(3,3,3-trifluoropropyl)succinamide]",≥ 40 min
4,"CCC[C@H](C(N)=O)[C@@H](CCC(F)(F)F)C(=O)N[C@@H]1C(=O)Nc2ccccc2-c2ccccc21 [Example 2, (2R,3S)-N-((7S)-6-Oxo-6,7-dihydro-5H-dibenzo[b,d]azepin-7-yl)-3-propyl-2-(3,3,3-trifluoropropyl)succinamide]",≥ 40 min
5,"NC(=O)[C@@H](CC1CC1)[C@@H](CCC(F)(F)F)C(=O)N[C@@H]1C(=O)Nc2c(F)cccc2-c2ccccc21 [Example 5, (2R,3S)-3-(Cyclopropylmethyl)-N-((7S)-4-fluoro-6-oxo-6,7-dihydro-5H-dibenzo[b,d]azepin-7-yl)-2-(3,3,3-trifluoropropyl)succinamide]",≥ 40 min
6,"NC(=O)[C@@H](CC1CC(F)(F)C1)[C@@H](CCC(F)(F)F)C(=O)N[C@@H]1C(=O)Nc2ccccc2-c2ccccc21 [Example 7, (2R,3S)-3-((3,3-difluorocyclobutyl)methyl)-N-((7S)-6-oxo-6,7-dihydro-5H-dibenzo[b,d]azepin-7-yl)-2-(3,3,3-trifluoropropyl)succinamide]",≥ 40 min

# Continued, values first:
row,half-life at 0.5 μM,SMILES
1,≥ 40 min,"Cc1cccc2c1NC(=O)[C@@H](NC(=O)[C@H](CCC(F)(F)F)[C@H](CC1CC1)C(N)=O)c1cc(F)ccc1-2 [Example 11, (2R,3S)-3-(Cyclopropylmethyl)-N-((7S)-9-fluoro-4-methyl-6-oxo-6,7-dihydro-5H-dibenzo[b,d]azepin-7-yl)-2-(3,3,3-trifluoropropyl)succinamide]"
2,≥ 40 min,"NC(=O)[C@@H](CCC(F)(F)F)[C@@H](CCC(F)(F)F)C(=O)N[C@@H]1C(=O)Nc2c(Cl)cccc2-c2ccccc21 [Example 8, (2R,3S)-N-(4-Chloro-6-oxo-6,7-dihydro-5H-dibenzo[b,d]azepin-7-yl)-2,3-bis(3,3,3-trifluoropropyl)succinamide]"
3,≥ 40 min,"CCC[C@H](C(N)=O)[C@@H](CCC(F)(F)F)C(=O)N[C@@H]1C(=O)Nc2c(F)cccc2-c2ccccc21 [Example 9, (2R,3S)-N-(4-Fluoro-6-oxo-6,7-dihydro-5H-dibenzo[b,d]azepin-7-yl)-3-propyl-2-(3,3,3-trifluoropropyl)succinamide]"
4,≥ 40 min,"Cc1cccc2c1NC(=O)[C@@H](NC(=O)[C@H](CCC(F)(F)F)[C@H](CCC(F)(F)F)C(N)=O)c1cc(F)ccc1-2 [Example 10, (2R,3S)-N-((7S)-9-Fluoro-4-methyl-6-oxo-6,7-dihydro-5H-dibenzo[b,d]azepin-7-yl)-2,3-bis(3,3,3-trifluoropropyl)succinamide]"
